The subject of assay [1] is lipoperoxide production in rat cerebral tissues. Briefly: Inhibition of lipoperoxide production in rat cerebral tissues (TBA reaction in cerebral tissue homogenate). The conditions noted are these: 37° C., 120 minutes, test concentrations 10, 1, 0.1, 0.01, 0.001 μg/ml, absorbance 535 nm, least square method. In kind it is biochemical. Here is the method:
Inhibition of lipoperoxide production in rat cerebral tissues
(1) Preparation of cerebral tissue homogenate
A rat was slaughtered with carbon dioxide, and immediately after blood sampling from the heart, brain was removed and weighed. A 5% (w/v) tissue homogenate was prepared by a homogenizer with PBS (pH 7.3). Homogenation was conducted two times for 15 seconds (scale 10) while cooling.
(2) Inhibition of lipoperoxide production in rat cerebral 4issues.
Each of the test drugs (50 μl, concentration 10, 1, 0.1, 0.01, 0.001 μg/ml) was placed in a polypropylene tube, to which was added cerebral tissue homogenate (1 ml), followed by incubation at 37° C. in a thermobath for 120 minutes. Thereafter, 1% phosphoric acid (0.3 ml), 10% phosphotungstic acid (0.2 ml) and 0.67% TBA (tiobarbituric acid) agent (1 ml) were added thereto while stirring as necessary, and immediately thereafter, TBA reaction was conducted in a boiling water bath for 20 minutes. The mixture was cooled in ice water for 5 minutes, and added with n-butanol (4 ml). After 10 minutes' shaking extraction, it was centrifuged at 3000 rpm and at room temperature (low temperature causes change of absorbance) for 10 minutes. The absorbance of the butanol layer (upper layer) was measured at a wavelength of 535 nm. The difference between the absorbance of the control incubated at 37° C. (added with dimethylsulfoxide only) and that of the control cooled at 2° C. (added with dimethylsulfoxide only) was taken as the amount of 100% lipoperoxide production, and the percent suppression of the drug was calculated from the following formula. [formula] wherein A is the difference of absorbance of 37° C. control and 2° C. control, and B is the difference of absorbance of a drug sample and 2° C. control. The IC50 (μg/ml) was calculated by least square method using the percent inhibition at each concentration.

In assay [2] the test system is TPA-induced mouse ear edema. The assay can be described thus: Effect on TPA-induced mouse ear edema test. The format is in vivo, male ICR mice. The settings on record: inhibition of ear edema (ear weight difference) vs control; TPA 1 μg/20 μl, topical; drug dissolved in TPA solution (100 μg/20 ml); 5 hours. The procedure: Effect on TPA-induced mouse ear edema test
Male ICR mice weighing about 20 g were etherized, and fixed at the dorsal position. TPA (12-O-tetradecanoylphorbol-13-acetate: phorbol 12-myristate-13-acetate, 1 μg/20 μl) dissolved in a mixed solution of acetone: pyridine: water (97:2:1) was coated on the left year while drying with a dryer. Five hours later, the mice were slaughtered by vertebral dislocation. The both ears were stamped out with a circle chisel (punch), and weighed. The weight difference between the both ears was taken as an index of the degree of edema, and the percent inhibition was calculated from the comparison with the control. Each drug was dissolved in TPA solution (100 μg/20 ml).

In brackets after ≈: the same amount, converted by molar mass.

Turning to `CN(C)CCOC(c1ccc(Cl)cc1)c1ccc(O)c(N(C)C)c1` (stereo not drawn) [Compound 1, 2-[1-(4-chlorophenyl)-1-(3-dimethylamino-4-hydroxyphenyl)methoxy]-N,N-dimethylethanamine], the IC50 – broadly, the midpoint of a concentration-inhibition curve – in assay [1] turned out to be 0.39 mg/L (≈ 1.12 µM).

As for `CN1CCN(C(c2ccc(Cl)cc2)c2ccc(O)c(N(C)C)c2)CC1` (stereo not drawn) [Compound 3, 4-[1-(4-chlorophenyl)-1-(4-methylpiperazino)]methyl-2-dimethylaminophenol], the “Inhibition (%)” value in assay [2] came to 71.1%.

On to `CN(C)CCN(Cc1ccc(O)c(N(C)C)c1)c1ccccc1` [Compound 4, 2-dimethylamino-4-[N-(2-dimethylaminoethyl)-N-phenyl]aminomethylphenol], for which, in assay [2], the “Inhibition (%)” value is 75.0%.

In the case of `CN(C)CC=C(c1ccc(Cl)cc1)c1ccc(O)c(N(C)C)c1` [Compound 5, 1-(4-chlorophenyl)-3-dimethylamino-1-(3-dimethylamine-4-hydroxyphenyl)-1-propene], the half-inhibitory concentration (IC50) in assay [1] was determined as 0.20 mg/L (≈ 0.604 µM). Besides, the “Inhibition (%)” value in assay [2] turned out to be 75.0%.

`CN(C)CCC(c1ccc(Cl)cc1)c1ccc(O)c(N(C)C)c1` (stereo not drawn) [Compound 6, 4-[1-(4-chlorophenyl)-3-dimethylaminopropyl]-2-dimethylaminophenol] had an IC50 in assay [1] of 0.31 mg/L (≈ 0.931 µM). The “Inhibition (%)” value in assay [2] came out at 62.7%.

`CN(C)c1cc(CN2CCN(C(c3ccccc3)c3ccc(Cl)cc3)CC2)ccc1O` (stereo not drawn) [Compound 7, 4-[4-(4-chlorobenzhydryl)piperazino]methyl-2-dimethylaminophenol] came in with an IC50 in assay [1] of 0.16 mg/L (≈ 0.367 µM). In assay [2], the “Inhibition (%)” value is on record as 54.6%.

`Cc1ccc(O)c(N(C)CCOC(c2ccccc2)c2ccccc2)c1` [Compound 10] returned an IC50 in assay [1] of 0.23 mg/L (≈ 0.662 µM).

Consider `Cc1ccc(O)c(NC(C)CN2c3ccccc3Sc3ccccc32)c1` (stereo not drawn) [Compound 12, 2-[1-methyl-2-(phenothiazine-10-yl)ethyl]amino-4-methylphenol], for which the IC50 in assay [1] was found to be 0.086 mg/L (≈ 0.237 µM). Further, the “Inhibition (%)” value in assay [2] came out at 74.7%.

In turn, `Cc1ccc(O)c(NCCCN2CCN(C(c3ccccc3)c3ccccc3)CC2)c1` [Compound 14, 2-[3-(4-benzhydrylpiperazino)propyl]amino-4-methylphenol] gave an IC50 in assay [1] of 0.038 mg/L (≈ 0.0914 µM). The “Inhibition (%)” value in assay [2] was 77.8%.

Consider `Cc1ccc(O)c(NCCCN2CCN(C(c3ccccc3)c3ccc(Cl)cc3)CC2)c1` (stereo not drawn) [Compound 15, 2-[3-[4-(4-chlorobenzhydryl)piperazino]propyl]amino-4-methylphenol], for which the IC50 in assay [1] was determined as 0.12 mg/L (≈ 0.267 µM). The “Inhibition (%)” value in assay [2] is listed as 86.7%.

The compound `Cc1ccc(O)c(N(C)CCCN2CCN(C(c3ccccc3)c3ccccc3)CC2)c1` [Compound 16, 2-[N-[3-(4-benzhydrylpiperazino)propyl]-N-methyl]amino-4-methylphenol] showed an IC50 in assay [1] of 0.30 mg/L (≈ 0.698 µM). Besides, the “Inhibition (%)” value in assay [2] is recorded as 50.9%.

`Cc1ccc(O)c(NCCCN2CCCN(C(c3ccccc3)c3ccc(Cl)cc3)CC2)c1` (stereo not drawn) [Compound 17, 2-[3-[4-(4-chlorobenzhydryl)homopiperazino)propyl]amino-4-methylphenol]: the IC50 in assay [1] was found to be 0.013 mg/L (≈ 0.028 µM). In addition, the “Inhibition (%)” value in assay [2] is given as 87.0%.

Regarding `Cc1ccc(O)c(NCCCN2CCC(C(O)(c3ccccc3)c3ccccc3)CC2)c1` [Compound 18, 2-[3-(4-hydroxydiphenylmethyl-1-piperidinyl)propyl]amino-4methylphenol], in assay [1], the IC50 came out at 0.029 mg/L (≈ 0.0673 µM). The “Inhibition (%)” value in assay [2] worked out at 89.0%.

For `Cc1ccc(O)c(NCCCN2CCC(OC(c3ccccc3)c3ccccc3)CC2)c1` [Compound 19, 2-[3-(4-benzhydryloxy-1-piperidinyl)propyl]amino-4-methylphenol], the IC50 in assay [1] was 0.036 mg/L (≈ 0.0836 µM). Besides, the “Inhibition (%)” value in assay [2] is recorded as 85.5%.

`Cc1cc(NCCCN2CCN(C(c3ccccc3)c3ccc(Cl)cc3)CC2)c(O)c(C(C)(C)C)c1` (stereo not drawn) [Compound 20, 6-tert-butyl-2-[3-[4-(4-chlorobenzhydryl)piperazino]propyl]amino-4-methylphenol] displayed an IC50 in assay [1] of 0.066 mg/L (≈ 0.13 µM). In assay [2], the “Inhibition (%)” value stood at 63.8%.

Take `Cc1ccc(O)c(N(CCCN2CCN(C(c3ccccc3)c3ccc(Cl)cc3)CC2)C(C)C)c1` (stereo not drawn) [Compound 21, 2-[N-[3-[4-(4-chlorobenzhydryl)piperazino]propyl]-N-isopropyl]amino-4-methylphenol]: the IC50 in assay [1] came out at 0.44 mg/L (≈ 0.894 µM). Further, in assay [2], the “Inhibition (%)” value stood at 44.4%.

In turn, `Cc1ccc(O)c(N(CCCN2CCC(C(O)(c3ccccc3)c3ccccc3)CC2)C(C)C)c1` [Compound 23, 2-[N-[3-(4-hydroxydiphenylmethyl-1-piperidinyl)propyl]-N-isopropyl]amino-4-methylphenol] displayed an IC50 in assay [1] of 0.79 mg/L (≈ 1.67 µM). Besides, the “Inhibition (%)” value in assay [2] worked out at 39.2%.

Consider `Cc1ccc(O)c(NCCCN2CCC(C(O)(c3ccccc3)c3ccc(Cl)cc3)CC2)c1` (stereo not drawn) [Compound 26, 2-[3-[4-(4-chlorophenyl)hydroxyphenylmethyl-1-piperidinyl]propyl]amino-4-methylphenol], for which the “Inhibition (%)” value in assay [2] is listed as 97.5%.

For the compound `Cc1ccc(O)c(NCCCN2CCN(C(c3ccc(F)cc3)c3ccc(F)cc3)CC2)c1` [Compound 32, 2-[3-[4-(4,4'-difluorobenzhydryl)piperazino]propyl]amino-4-methylphenol], the IC50 in assay [1] was 0.10 mg/L (≈ 0.221 µM). Moreover, in assay [2], the “Inhibition (%)” value is on record as 64.1%.

The values above are taken from patent publication US5308840A, “Substituted or unsubstituted benzhydryl heteroalkyl-substituted aminophenol compounds and pharmaceutical compositions thereof” (Green Cross Corporation, priority 1991, dated 1994).
